# Patent US20240173329A1, “BELVARAFENIB FOR USE IN TREATMENT OF BRAIN CANCERS” (Genentech, Inc., priority 2021, published 2024)
# Key:
# [1] = target: T1, EPHA8 (Homo sapiens, UniProt P29322); assay: panel of 189 kinase assays; type: biochemical
# T1 sequence (P29322 28-1005): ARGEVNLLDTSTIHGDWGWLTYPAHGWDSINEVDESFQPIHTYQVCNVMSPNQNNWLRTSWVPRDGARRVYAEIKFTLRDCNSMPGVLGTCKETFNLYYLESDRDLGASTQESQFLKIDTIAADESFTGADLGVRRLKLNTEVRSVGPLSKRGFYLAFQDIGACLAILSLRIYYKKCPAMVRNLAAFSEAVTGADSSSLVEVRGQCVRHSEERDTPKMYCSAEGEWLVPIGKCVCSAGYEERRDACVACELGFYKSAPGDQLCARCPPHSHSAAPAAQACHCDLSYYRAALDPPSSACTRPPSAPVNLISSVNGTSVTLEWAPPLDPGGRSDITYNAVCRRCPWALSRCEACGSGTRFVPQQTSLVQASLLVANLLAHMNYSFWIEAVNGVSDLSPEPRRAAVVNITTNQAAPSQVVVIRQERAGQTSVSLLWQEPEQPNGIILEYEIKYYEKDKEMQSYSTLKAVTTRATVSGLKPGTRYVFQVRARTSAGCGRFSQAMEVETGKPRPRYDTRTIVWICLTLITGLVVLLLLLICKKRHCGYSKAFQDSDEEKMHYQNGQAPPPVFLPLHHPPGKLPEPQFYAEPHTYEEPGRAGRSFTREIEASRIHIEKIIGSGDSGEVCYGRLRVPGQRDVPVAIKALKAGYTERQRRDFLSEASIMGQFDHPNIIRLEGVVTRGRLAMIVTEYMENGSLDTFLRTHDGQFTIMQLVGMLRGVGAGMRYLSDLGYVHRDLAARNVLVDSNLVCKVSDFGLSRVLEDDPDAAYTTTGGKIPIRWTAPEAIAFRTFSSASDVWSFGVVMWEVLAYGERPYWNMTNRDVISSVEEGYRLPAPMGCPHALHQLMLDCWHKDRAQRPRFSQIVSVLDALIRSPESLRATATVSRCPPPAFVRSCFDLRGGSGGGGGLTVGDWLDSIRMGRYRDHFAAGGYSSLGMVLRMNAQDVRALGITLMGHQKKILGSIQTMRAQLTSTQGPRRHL
# [2] = test system: P-gp/BCRP; assay: P-gp/BCRP efflux substrate status; type: in vitro ADME; conditions: belvarafenib, own experiments
# [3] = Brain to plasma ratio of belvarafenib, summary over mice and rats; type: in vivo; conditions: for Kp: mouse, rat, brain/plasma
# Experimental: Pharmacokinetic parameters of belvarafenib were calculated from plasma and brain concentration-time data by a non-compartmental method using Phoenix™ WinNonlin 8.1 (Certara, USA). The peak plasma and brain concentration (Cmax) and the corresponding time (Tmax) were directly obtained from the raw data. The area under the plasma curve (AUClast) was obtained by linear-log trapezoidal summation. Other PK parameters such as AUC from dosing time extrapolated to infinity (AUCinf), half-life (t1/2) and mean residence time (MTRlast) were calculated using WinNonlin. The plasma and brain concentrations of belvarafenib were presented as MEAN±S.D. The brain to plasma (B/P) ratio of Belvarafenib was calculated by dividing AUClast in the brain by AUClast in the plasma.
# The brain to plasma ratio is expressed in terms of B/P (nonclinical) defined as the percentage of brain exposure relative to plasma. The B/P for belvarafenib was determined experimentally according to the present disclosure and wherein the B/P of 93% is for mice and the B/P of 138% is for rats. The B/P for DAY101 is for mice was taken from Gampa, et al., “Brain Distribution and Active Efflux of Three pan-RAF Inhibitors: Considerations in the Treatment of Melanoma Brain Metastases”, J Pharmacol Exp Ther 368:446-461, March 2019. The B/P for dabrafenib is for mice and was taken from Mittapalli, et al., “Mechanisms Limiting Distribution of the Threonine-Protein Kinase B-RaFV600E Inhibitor Dabrafenib to the Brain: Implications for the Treatment of Melanoma Brain Metastases”, J Pharmacol Exp Ther 344:[…], 2013. The B/P for vemurafenib is for mice and was taken from Mittapalli, et al., “Impact of P-glycoprotein (ABCB1) and breast cancer resistance protein (ABCG2) on the brain distribution of a novel BRAF inhibitor: vemurafenib (PLX4032)”, J Pharmacol Exp Ther 342:33-40, 2013. […]
structure (smiles),measurement,setting,value
"Cc1ccc2c(Nc3cccc(Cl)c3F)nccc2c1NC(=O)c1csc2c(N)ncnc12 [Belvarafenib, 4-amino-N-(1-((3-chloro-2-fluorophenyl)amino)-6-methylisoquinolin-5-yl)thieno[3,2-d]pyrimidine-7-carboxamide]",inhibition at 1 µM,[1],> 90%
same,P-gp/BCRP efflux substrate?,[2],is not a P-gp and a BCRP efflux substrate and No
same,"B/P (nonclinical), percentage of brain exposure relative to plasma","[3]; 93% mice, 138% rats",93-138%
same,Kp,"[3]; oral, 30 mg/kg",0.8 to 1.2
same,Kp,"[3]; mice and rats, oral administration",~1
